Here are results for three compounds from publication doi:10.1101/2022.06.05.494897v1 (biorxiv, 2022).

Like-named read-outs stand apart in the source and are kept apart here. Bounds are passed on as bounds.

What all share (format): biochemical
One experiment has as its target human cathepsin B (Homo sapiens, UniProt P07858). Put plainly: fluorogenic peptide cleavage assay.
The next experiment concerns the target human cathepsin L (Homo sapiens, UniProt P07711). Put plainly: fluorogenic peptide cleavage assay.
The target in the next experiment is SARS-CoV-2 3CL^pro (Severe acute respiratory syndrome coronavirus 2, UniProt P0DTD1).

Chain of human cathepsin L (P07711 114-333 limits assumed): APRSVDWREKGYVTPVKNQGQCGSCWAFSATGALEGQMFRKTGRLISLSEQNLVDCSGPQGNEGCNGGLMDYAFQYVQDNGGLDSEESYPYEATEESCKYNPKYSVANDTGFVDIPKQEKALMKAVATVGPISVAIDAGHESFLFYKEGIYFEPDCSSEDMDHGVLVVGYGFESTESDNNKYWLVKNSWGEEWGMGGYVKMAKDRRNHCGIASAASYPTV

With `CC(C)C[C@H](NC(=O)c1cc2c(F)cccc2[nH]1)C(=O)NN(C[C@@H]1CCNC1=O)C(=O)[C@H](F)Cl` [8a, N-((S)-1-(2-((R)-2-Chloro-2-fluoroacetyl)-2-(((S)-2-oxopyrrolidin-3-yl)methyl)hydrazineyl)-4-methyl-1-oxopentan-2-yl)-4-fluoro-1H-indole-2-carboxamide], the IC50 against human cathepsin B and at human cathepsin L was > 10000 nM throughout.

With “N-((S)-1-(2-Acetyl-2-(((S)-2-oxopyrrolidin-3-yl)methyl)hydrazineyl)-4-methyl-1-oxopentan-2-yl)-4-fluoro-1H-indole-2-carboxamide [compound 12]”, the IC50 (commonly the concentration at which inhibition is half-maximal) against SARS-CoV-2 3CL^pro ([…], no CFA warhead, 30 min preincubation, pH 7.3, 1 mM DTT, ambient temperature) worked out at 178 nM.

In turn, `COc1cccc2[nH]c(C(=O)N[C@@H](CC(C)C)C(=O)NN(C[C@H]3CCNC3=O)C(=O)[C@H](F)Cl)cc12` [10b, N-((S)-1-(2-((R)-2-Chloro-2-fluoroacetyl)-2-(((R)-2-oxopyrrolidin-3-yl)methyl)hydrazineyl)-4-methyl-1-oxopentan-2-yl)-4-methoxy-1H-indole-2-carboxamide] registered an IC50 against SARS-CoV-2 3CL^pro of 15.6 nM.
